Target: T1, p38α (Homo sapiens, UniProt Q16539)
T1 construct: c-myc (N); 6His (N); made in house; host or cells: E. coli (PET vectors)
Assay: In vitro enzyme assay, p38 kinase (p38α isoform)
Format: biochemical
Description: The ability of compounds of the invention to inhibit the enzyme p38 kinase was assessed. Activity of particular test compounds against each of the p38α and p38β isoforms of the enzyme was determined.
Human recombinant MKK6 (GenBank Accesion Number G1209672) was isolated from Image clone 45578 (Genomics, 1996, 33, 151) and utilised to produce protein in the form of a GST fusion protein in a pGEX vector using analogous procedures to those disclosed by J. Han et al., Journal of Biological Chemistry, 1996, 271, 2886-2891. p38α (GenBank Accession Number G529039) and p38β (GenBank Accession Number G1469305) were isolated by PCR amplification of human lymphoblastoid cDNA (GenBank Accession Number GM1416) and human foetal brain cDNA [synthesised from mRNA (Clontech, catalogue no. 6525-1) using a Gibco superscript cDNA synthesis kit] respectively using oligonucleotides designed for the 5′ and 3′ ends of the human p38α and p38β genes using analogous procedures to those described by J. Han et al., Biochimica et Biophysica Acta, 1995, 126, 224-227 and Y. Jiang et al., Journal of Biological Chemistry, 1996, 271, 17920-17926.
Both p38 protein isoforms were expressed in e coli in PET vectors. Human recombinant p38α and p38β isoforms were produced as 5′ c-myc, 6His tagged proteins. Both MKK6 and the p38 proteins were purified using standard protocols: the GST MKK6 was purified using a glutathione sepharose column and the p38 proteins were purified using nickel chelate columns.
The p38 enzymes were activated prior to use by incubation with MKK6 for 3 hours at 30° C. The unactivated coli-expressed MKK6 retained sufficient activity to fully activate both isoforms of p38. The activation incubate comprised p38α (10 μl of 10 mg/ml) or p38β (10 μl of 5 mg/ml) together with MKK6 (10 μl of 1 mg/ml), ‘Kinase buffer’ [100 μl; pH 7.4 buffer comprising Tris (50 mM), EGTA (0.1 mM), sodium orthovanadate (0.1 mM) and β-mercaptoethanol (0.1%)] and MgATP (30 μl of 50 mM Mg(OCOCH3)2 and 0.5 mM ATP). This produced enough activated p38 enzyme for 3 Microtiter plates.
Test compounds were solubilised in DMSO and 10 μl of a 1:10 diluted sample in ‘Kinase Buffer’ was added to a well in a Microtiter plate. […] The precipitated protein was phosphorylated by p38 kinase and test compounds were assessed for their ability to inhibit this phosphorylation. The plates were filtered using a Canberra Packard Unifilter and washed with 2% TCA, dried overnight and counted on a Top Count scintillation counter.
Test compounds were tested initially at a single dose and active compounds were retested to allow IC50 values to be determined.

T1 sequence (Q16539 whole entry): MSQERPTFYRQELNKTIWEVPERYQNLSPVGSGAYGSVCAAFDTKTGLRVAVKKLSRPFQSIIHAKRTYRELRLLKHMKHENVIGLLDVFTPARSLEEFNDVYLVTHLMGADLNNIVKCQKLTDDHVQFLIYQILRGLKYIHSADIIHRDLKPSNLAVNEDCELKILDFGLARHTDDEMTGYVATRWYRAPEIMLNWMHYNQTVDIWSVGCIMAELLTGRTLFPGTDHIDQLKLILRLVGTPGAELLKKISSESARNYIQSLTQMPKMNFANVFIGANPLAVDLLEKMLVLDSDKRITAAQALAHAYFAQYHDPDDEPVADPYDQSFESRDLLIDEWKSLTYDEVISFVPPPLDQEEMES

IC50 | Compound
60 nM | Cc1ccc(NC(=O)c2ccnc(N3CCOCC3)c2)cc1Nc1ncnc2ccsc12 [Example 1, 4-[2-Methyl-5-(2-morpholinopyridine-4-carboxamido)anilino]thieno[3,2-d]pyrimidine]
70 nM | Cc1ccc(NC(=O)c2ccnc(N3CCOCC3)c2)cc1Nc1ncnc2sccc12 [3(2)]
40 nM | Cc1ccc(NC(=O)c2ccnc(N3CCOCC3)c2)cc1Nc1ncnc2c(C)csc12 [3(1)]
340 nM | Cc1ccc(NC(=O)c2ccnc(N3CCOCC3)c2)cc1Nc1ncnc2scc(C)c12 [Example 2, 4-[2-Methyl-5-(2-morpholinopyridine-4-carboxamido)anilino]-5-methylthieno[2,3-d]pyrimidine]

Reference: patent publication US6784174B1, “Pyridine and pyrimidine derivatives and their use as inhibitors of cytokine mediated disease” (AstraZeneca AB, priority 1999, dated 2004)
